Experimental findings from patent US12252524B2, “GIP/GLP1 co-agonist compounds” (Eli Lilly and Company, priority 2018, dated 2025) are described below.

Numbered stars: 1 amine (or outer) side, 2 acyl side, 3 side chain; on linkers, the order of the positions; unused ones are H or OH. Square brackets hold non-standard residues; d marks the D form. Side chains are listed from the residue outwards. Peptide text beside a SMILES is read from it. * marks the point of attachment. C18 diacid = O=C(O)CCCCCCCCCCCCCCCCC(=O)*; αMePhe(2-F) = C[C@](N)(Cc1ccccc1F)C(=O)O; γGlu = O=C(O)[C@H](CCC(=O)[*:2])N[*:1]; αMeL = CC(C)C[C@](C)(N)C(=O)O; AEEA = NCCOCCOCC(=O)O; Aib = CC(C)(N)C(=O)O

Test [1] deals with human GLP-1 receptor (GLP-1R) (Homo sapiens, UniProt P43220). As to the kind of experiment: cAMP pharmacological functional assay in presence of casein, hGLP-1R. Conditions: HEK293 cells expressing hGLP-1R, 0.1% Casein, geometric mean; read-out: hGLP1R cAMP Rel EC50 nM (SEM, n). The test is classed as cell-based.
In test [2] the target is T1, gastric inhibitory peptide receptor (GIPR) (Homo sapiens, UniProt P48546).
T1 sequence (P48546 22-466): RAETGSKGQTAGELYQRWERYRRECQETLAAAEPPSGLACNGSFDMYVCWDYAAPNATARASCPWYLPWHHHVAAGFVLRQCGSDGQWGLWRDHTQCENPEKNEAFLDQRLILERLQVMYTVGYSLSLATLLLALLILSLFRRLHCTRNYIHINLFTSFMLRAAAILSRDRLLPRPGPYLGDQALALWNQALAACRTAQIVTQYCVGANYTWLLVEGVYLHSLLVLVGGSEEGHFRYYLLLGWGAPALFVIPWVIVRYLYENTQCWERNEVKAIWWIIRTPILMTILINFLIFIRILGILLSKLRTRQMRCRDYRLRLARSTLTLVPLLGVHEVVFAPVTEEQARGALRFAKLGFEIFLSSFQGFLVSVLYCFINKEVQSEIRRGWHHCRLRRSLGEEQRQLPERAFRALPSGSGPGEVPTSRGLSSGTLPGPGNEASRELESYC
The test is described as follows: cAMP pharmacological functional assay in presence of casein, hGIPR. The note with it: HEK293 cells expressing hGIPR, 0.1% Casein, geometric mean; read-out: hGIPR cAMP Rel EC50 nM (SEM, n). Type of test: cell-based.

Chain of human GLP-1 receptor (GLP-1R) (P43220 24-463): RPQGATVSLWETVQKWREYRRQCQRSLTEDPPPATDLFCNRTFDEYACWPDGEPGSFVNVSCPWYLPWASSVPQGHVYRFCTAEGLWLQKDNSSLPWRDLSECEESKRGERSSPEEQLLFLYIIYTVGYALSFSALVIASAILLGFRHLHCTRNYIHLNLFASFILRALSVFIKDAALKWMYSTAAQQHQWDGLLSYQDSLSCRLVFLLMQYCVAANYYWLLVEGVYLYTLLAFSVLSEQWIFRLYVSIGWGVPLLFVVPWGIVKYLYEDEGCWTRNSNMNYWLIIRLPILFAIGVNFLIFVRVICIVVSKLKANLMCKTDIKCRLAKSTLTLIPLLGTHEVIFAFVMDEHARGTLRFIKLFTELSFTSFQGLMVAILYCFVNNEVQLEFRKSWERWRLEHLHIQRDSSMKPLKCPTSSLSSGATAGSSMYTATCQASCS

With `CC[C@H](C)[C@H](NC(=O)[C@H](CC(C)C)NC(=O)[C@H](Cc1ccc(O)cc1)NC(=O)[C@@H](CCC(=O)O)NC(=O)[C@@H](NC(=O)[C@H](Cc1ccccc1)NC(=O)[C@@H](NC(=O)C(C)(C)NC(=O)[C@H](CCC(N)=O)NC(=O)[C@H](C)NC(=O)[C@H](CCCCNC(=O)COCCOCCNC(=O)COCCOCCNC(=O)[C@@H](N)CCCCNC(=O)CCCCCCCCCCCCCCCCC(=O)O)NC(=O)[C@H](CCC(=O)O)NC(=O)[C@H](CC(=O)O)NC(=O)[C@H](CC(C)C)NC(=O)C(C)(CC(C)C)NC(=O)[C@@H](NC(=O)[C@H](CO)NC(=O)[C@H](Cc1c[nH]cn1)NC(=O)[C@H](CC(=O)O)NC(=O)[C@H](CO)NC(=O)[C@@H](NC(=O)C(C)(Cc1ccccc1F)NC(=O)[C@@H](NC(=O)CNC(=O)[C@H](CCC(=O)O)NC(=O)C(C)(C)NC(=O)[C@@H](N)Cc1ccc(O)cc1)[C@@H](C)O)[C@@H](C)O)[C@@H](C)CC)[C@@H](C)O)[C@@H](C)CC)C(=O)N[C@@H](CCC(=O)O)C(=O)NCC(=O)NCC(=O)N1CCC[C@H]1C(=O)N[C@@H](CO)C(=O)N[C@@H](CO)C(=O)NCC(=O)N[C@@H](C)C(=O)N1CCC[C@H]1C(=O)N1CCC[C@H]1C(=O)N1CCC[C@H]1C(=O)N[C@@H](CO)C(N)=O` (stereo partly shown) [Example 176], the EC50 in test [1] came out at 1.07 nM; in test [2], 0.523 nM.
The matching figures for `CC[C@H](C)[C@H](NC(=O)[C@H](CC(C)C)NC(=O)[C@H](Cc1ccc(O)cc1)NC(=O)[C@@H](CCC(=O)O)NC(=O)[C@@H](NC(=O)[C@H](Cc1ccccc1)NC(=O)[C@H](Cc1c[nH]cn1)NC(=O)C(C)(C)NC(=O)[C@H](CCC(N)=O)NC(=O)[C@H](C)NC(=O)[C@H](CCCCNC(=O)COCCOCCNC(=O)COCCOCCNC(=O)CC[C@H](NC(=O)CCCCCCCCCCCCCCCCC(=O)O)C(=O)O)NC(=O)[C@H](CCC(=O)O)NC(=O)[C@H](CC(=O)O)NC(=O)[C@H](CC(C)C)NC(=O)[C@](C)(CC(C)C)NC(=O)[C@@H](NC(=O)[C@H](CO)NC(=O)[C@H](Cc1c[nH]cn1)NC(=O)[C@H](CC(=O)O)NC(=O)[C@H](CO)NC(=O)[C@@H](NC(=O)[C@](C)(Cc1ccccc1F)NC(=O)[C@@H](NC(=O)CNC(=O)[C@H](CCC(=O)O)NC(=O)C(C)(C)NC(=O)[C@@H](N)Cc1ccc(O)cc1)[C@@H](C)O)[C@@H](C)O)[C@@H](C)CC)[C@@H](C)CC)C(=O)N[C@@H](CCC(=O)O)C(=O)NCC(=O)NCC(=O)N1CCC[C@H]1C(=O)N[C@@H](CO)C(=O)N[C@@H](CO)C(=O)NCC(=O)N[C@@H](C)C(=O)N1CCC[C@H]1C(=O)N1CCC[C@H]1C(=O)N1CCC[C@H]1C(=O)N[C@@H](CO)C(N)=O` [Example 177] (H-Y[Aib]EGT[αMePhe(2-F)]TSDHSI[αMeL]LDEK([AEEA-AEEA-γGlu-C18 diacid])AQ[Aib]HFI[dE]YLIEGGPSSGAPPPS-NH2): 6.79 nM and 1.4 nM.
